Assay results published in PMC9649612, “Molecular docking and biochemical validation of (-)-syringaresinol-4-O-β-D-apiofuranosyl-(1→2)-β-D-glucopyranoside binding to an allosteric site in monoamine transporters” (Frontiers in Pharmacology, 2022).

Columns and labels:
[1] = molecular target: T1, hSERT F556A (S2 site mutant) (Homo sapiens, UniProt P31645, F556A); assay: APP+ transport in HeLa cells expressing hSERT mutant F556A; format: cell-based; settings: 2 μM APP+ 5 min, intact HeLa cells, read-out: SAG IC50 for transport
T1 construct: expressed in transfected cells; host or cells: HeLa (ATCC CCL-2), transient, pcDNA3.1
Protocol: (§1) The mutants used for this study were constructed in the WT background carried by the expression plasmids for hSERT, hDAT, or hNET under the control of CMV promotor in pcDNA3.1 vector, respectively. All mutants were generated using the Mut Express II Fast Mutagenesis Kit (Vazyme) and confirmed by full-length DNA sequencing.
(§2) HeLa cells were cultured in Dulbecco’s Modified Eagle’s Medium supplemented with 10% fetal bovine serum, 100 units/ml penicillin, and 100 μg/ml streptomycin at 37°C in a humidified 5% CO2 incubator. Cells were plated in a 6-well culture plate and grown overnight. Cells at ∼70% confluence were transfected with hSERT, hDAT, or hNET cDNA in pcDNA3.1 by lipofectamine 2000. […] After grown for additional 12–16 h, the cells were assayed for APP^+ or ASP^+ fluorescence image acquisition.
(§3) The cells expressing WT or mutants of hSERT, hDAT, or hNET were wet mounted on polylysine coated glass slides in 12-well plates and applied for the indicated treatments. […] The extent of APP^+ accumulated in the cells was determined by confocal imaging analysis. ASP^+ binding to SERT in the cell membrane was measured with digitonin-permeabilized cells ([Li M. et al., 2022a]). […] After removing excess ASP^+ by rapid washing three times, ASP^+ binding was determined by confocal imaging analysis.
(§4) Images were analyzed using Zen Blue software. […]

[2] = molecular target: T2, hDAT Q317A (S2 site mutant) (Homo sapiens, UniProt Q01959, Q317A); assay: APP+ transport in HeLa cells expressing hDAT mutant Q317A; format: cell-based; settings: intact HeLa cells, read-out: SAG IC50
T2 construct: expressed in transfected cells; host or cells: HeLa
T2 sequence (Q01959 whole entry Q317A): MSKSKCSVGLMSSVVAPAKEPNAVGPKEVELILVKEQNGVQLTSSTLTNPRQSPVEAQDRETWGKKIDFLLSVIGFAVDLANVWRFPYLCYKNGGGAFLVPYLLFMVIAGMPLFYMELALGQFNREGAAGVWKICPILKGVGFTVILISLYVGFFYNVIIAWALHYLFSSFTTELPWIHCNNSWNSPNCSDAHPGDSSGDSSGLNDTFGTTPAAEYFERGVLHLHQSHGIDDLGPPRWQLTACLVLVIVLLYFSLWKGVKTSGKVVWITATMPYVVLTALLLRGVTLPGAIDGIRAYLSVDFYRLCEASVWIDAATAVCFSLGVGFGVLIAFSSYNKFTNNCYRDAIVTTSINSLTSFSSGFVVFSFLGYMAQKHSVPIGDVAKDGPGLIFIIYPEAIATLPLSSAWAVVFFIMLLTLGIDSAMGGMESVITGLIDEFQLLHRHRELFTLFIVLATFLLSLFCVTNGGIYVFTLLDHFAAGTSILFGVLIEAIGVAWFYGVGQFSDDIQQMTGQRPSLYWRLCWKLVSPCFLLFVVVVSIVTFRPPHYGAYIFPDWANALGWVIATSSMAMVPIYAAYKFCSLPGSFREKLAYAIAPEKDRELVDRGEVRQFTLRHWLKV
Protocol: as §1, §2, §3, §4

[3] = molecular target: T3, hSERT S438T (S1 site mutant) (Homo sapiens, UniProt P31645, S438T); assay: APP+ transport in HeLa cells expressing hSERT mutant S438T; format: cell-based; settings: 2 μM APP+ 5 min, intact HeLa cells, read-out: SAG IC50 for transport
T3 construct: expressed in transfected cells; host or cells: HeLa
Protocol: as §1, §2, §3, §4

[4] = molecular target: T4, WT-hDAT (Homo sapiens, UniProt Q01959); assay: APP+ transport (uptake) in HeLa cells expressing WT-hDAT; format: cell-based; settings: WT hDAT; APP+ transport, intact HeLa cells; read-out: SAG IC50
T4 construct: expressed in transfected cells; host or cells: HeLa
T4 sequence (Q01959 whole entry): as the sequence (Q01959 whole entry Q317A) above, with A317Q counted along it
Protocol: (§5) HeLa cells were cultured in Dulbecco’s Modified Eagle’s Medium supplemented with 10% fetal bovine serum, 100 units/ml penicillin, and 100 μg/ml streptomycin at 37°C in a humidified 5% CO2 incubator. Cells were plated in a 6-well culture plate and grown overnight. Cells at ∼70% confluence were transfected with hSERT, hDAT, or hNET cDNA in pcDNA3.1 by lipofectamine 2000. Transfected cells were incubated for 24 h at 37°C with 5% CO2 and then transferred into a 12-well plate placed with polylysine coated slides. After grown for additional 12–16 h, the cells were assayed for APP^+ or ASP^+ fluorescence image acquisition.
as §3
(§6) Images were analyzed using Zen Blue software.
(§7) Nonlinear regression fits of experimental and calculated data were performed with Origin (Origin Lab). […]

[5] = molecular target: T5, hNET D473N (S2 site mutant) (Homo sapiens, UniProt P23975, D473N); assay: APP+ transport in HeLa cells expressing hNET mutant D473N; format: cell-based
T5 construct: expressed in transfected cells; host or cells: HeLa
T5 sequence (P23975 whole entry D473N): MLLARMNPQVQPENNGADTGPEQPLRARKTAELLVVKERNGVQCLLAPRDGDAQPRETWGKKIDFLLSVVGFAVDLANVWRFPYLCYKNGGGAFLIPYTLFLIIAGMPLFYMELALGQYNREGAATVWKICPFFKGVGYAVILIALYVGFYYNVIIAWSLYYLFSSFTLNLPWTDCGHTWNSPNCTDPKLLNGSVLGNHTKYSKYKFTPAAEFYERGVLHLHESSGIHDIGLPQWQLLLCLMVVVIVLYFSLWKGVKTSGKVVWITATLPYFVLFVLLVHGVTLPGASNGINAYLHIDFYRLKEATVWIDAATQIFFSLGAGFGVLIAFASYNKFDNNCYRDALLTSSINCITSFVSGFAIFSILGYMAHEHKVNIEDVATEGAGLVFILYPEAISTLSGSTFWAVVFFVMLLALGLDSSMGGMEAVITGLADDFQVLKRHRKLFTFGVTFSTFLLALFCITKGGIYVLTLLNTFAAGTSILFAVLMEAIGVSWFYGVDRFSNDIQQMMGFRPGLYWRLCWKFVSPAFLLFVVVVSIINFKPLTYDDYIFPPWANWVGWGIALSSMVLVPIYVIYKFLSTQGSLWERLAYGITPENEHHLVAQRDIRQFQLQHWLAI
Protocol: as §1, §5
The cells expressing WT or mutants of hSERT, hDAT, or hNET were wet mounted on polylysine coated glass slides in 12-well plates and applied for the indicated treatments. In brief, the cells were washed twice with 500 μl KRH buffer containing 20 mM HEPES, pH 7.4, 120 mM NaCl, 1.3 mM KCl, 2.2 mM CaCl2, 1.2 mM MgSO4, and 0.1% (w/v) glucose. […] Excess APP^+ was then removed by rapid washing three times with 500 μl KRH buffer. The extent of APP^+ accumulated in the cells was determined by confocal imaging analysis. ASP^+ binding to SERT in the cell membrane was measured with digitonin-permeabilized cells ([Li M. et al., 2022a]). […] After removing excess ASP^+ by rapid washing three times, ASP^+ binding was determined by confocal imaging analysis.
as §6
Nonlinear regression fits of experimental and calculated data were performed with Origin (Origin Lab). The statistical analysis given was from multiple experiments. Data with error bars in the figures represent the mean ± SD for at least 10 measurements per condition in one experiment or the mean ± SEM from at least three experiments as indicated, respectively. […]

[6] = molecular target: T6, hSERT I172F (S1 site mutant) (Homo sapiens, UniProt P31645, I172F); assay: APP+ transport in HeLa cells expressing hSERT mutant I172F; format: cell-based; settings: 2 μM APP+ 5 min, intact HeLa cells, read-out: SAG IC50 for transport
T6 construct: expressed in transfected cells; host or cells: HeLa
Protocol: as §1, §2, §3, §4

[7] = molecular target: T7, hDAT V152F (S1 site mutant) (Homo sapiens, UniProt Q01959, V152F); assay: APP+ transport in HeLa cells expressing hDAT mutant V152F; format: cell-based
T7 construct: expressed in transfected cells; host or cells: HeLa
T7 sequence (Q01959 whole entry V152F): as the sequence (Q01959 whole entry Q317A) above, with V152F, A317Q counted along it
Protocol: as §1, §2, §3, §4

[8] = molecular target: T8, hNET K541G (S2 site mutant) (Homo sapiens, UniProt P23975, K541G); assay: APP+ transport in HeLa cells expressing hNET mutant K541G; format: cell-based; settings: intact HeLa cells, read-out: SAG IC50
T8 construct: expressed in transfected cells; host or cells: HeLa
T8 sequence (P23975 whole entry K541G): as the sequence (P23975 whole entry D473N) above, with N473D, K541G counted along it
Protocol: as §1, §2, §3, §4

[9] = molecular target: T9, hDAT T566A (S2 site mutant) (Homo sapiens, UniProt Q01959, T566A); assay: APP+ transport in HeLa cells expressing hDAT mutant T566A; format: cell-based
T9 construct: expressed in transfected cells; host or cells: HeLa
T9 sequence (Q01959 whole entry T566A): as the sequence (Q01959 whole entry Q317A) above, with A317Q, T566A counted along it
Protocol: as §1, §2, §3, §4

[10] = molecular target: T10, hSERT Y95F (S1 site mutant) (Homo sapiens, UniProt P31645, Y95F); assay: APP+ transport in HeLa cells expressing hSERT mutant Y95F; format: cell-based
T10 construct: expressed in transfected cells; host or cells: HeLa (ATCC CCL-2), transient, pcDNA3.1
Protocol: as §1, §2, §3, §4

[11] = molecular target: T11, hSERT P560G (S2 site mutant) (Homo sapiens, UniProt P31645, P560G); assay: ASP+ binding in digitonin-permeabilized HeLa cells expressing hSERT P560G; settings: 10 μM ASP+, read-out: SAG IC50 for binding
T11 construct: expressed in transfected cells; host or cells: HeLa (ATCC CCL-2), transient, pcDNA3.1
Protocol: as §1, §2, §3, §4

[12] = molecular target: T12, hSERT I327A (S2 site mutant) (Homo sapiens, UniProt P31645, I327A); assay: ASP+ binding in digitonin-permeabilized HeLa cells expressing hSERT I327A; settings: 10 μM ASP+, read-out: SAG IC50 for binding
T12 construct: expressed in transfected cells; host or cells: HeLa (ATCC CCL-2), transient, pcDNA3.1
Protocol: as §1, §2, §3, §4

[13] = molecular target: T13, hSERT P561G (S2 site mutant) (Homo sapiens, UniProt P31645, P561G); assay: APP+ transport in HeLa cells expressing hSERT mutant P561G; format: cell-based; settings: 2 μM APP+ 5 min, intact HeLa cells, read-out: SAG IC50 for transport
T13 construct: expressed in transfected cells; host or cells: HeLa (ATCC CCL-2), transient, pcDNA3.1
Protocol: as §1, §2, §3, §4

[14] = molecular target: T14, hSERT D328A (S2 site mutant) (Homo sapiens, UniProt P31645, D328A); assay: APP+ transport in HeLa cells expressing hSERT mutant D328A; format: cell-based; settings: 2 μM APP+ 5 min, intact HeLa cells, read-out: SAG IC50 for transport
T14 construct: expressed in transfected cells; host or cells: HeLa (ATCC CCL-2), transient, pcDNA3.1
Protocol: as §1, §2, §3, §4

[15] = molecular target: T15, WT-hSERT (Homo sapiens, UniProt P31645); assay: APP+ transport (uptake) in HeLa cells expressing WT-hSERT; format: cell-based; settings: 2 μM APP+ 5 min, SAG added 5 min prior, intact HeLa cells
T15 construct: expressed in transfected cells; host or cells: HeLa (ATCC CCL-2), transient, pcDNA3.1
Protocol: as §5, §3, §6, §7

[16] = molecular target: T16, hDAT S422T (S1 site mutant) (Homo sapiens, UniProt Q01959, S422T); assay: APP+ transport in HeLa cells expressing hDAT mutant S422T; format: cell-based
T16 construct: expressed in transfected cells; host or cells: HeLa
T16 sequence (Q01959 whole entry S422T): as the sequence (Q01959 whole entry Q317A) above, with A317Q, S422T counted along it
Protocol: as §1, §2, §3, §4

[17] = molecular target: T17, hDAT R544G (S2 site mutant) (Homo sapiens, UniProt Q01959, R544G); assay: APP+ transport in HeLa cells expressing hDAT mutant R544G; format: cell-based
T17 construct: expressed in transfected cells; host or cells: HeLa
T17 sequence (Q01959 whole entry R544G): as the sequence (Q01959 whole entry Q317A) above, with A317Q, R544G counted along it
Protocol: as §1, §2, §3, §4

[18] = molecular target: T18, hSERT S559A (S2 site mutant) (Homo sapiens, UniProt P31645, S559A); assay: ASP+ binding in digitonin-permeabilized HeLa cells expressing hSERT S559A; settings: 10 μM ASP+, read-out: SAG IC50 for binding
T18 construct: expressed in transfected cells; host or cells: HeLa (ATCC CCL-2), transient, pcDNA3.1
Protocol: as §1, §2, §3, §4

[19] = molecular target: T19, hDAT F320A (S2 site mutant) (Homo sapiens, UniProt Q01959, F320A); assay: APP+ transport in HeLa cells expressing hDAT mutant F320A; format: cell-based
T19 construct: expressed in transfected cells; host or cells: HeLa
T19 sequence (Q01959 whole entry F320A): as the sequence (Q01959 whole entry Q317A) above, with A317Q, F320A counted along it
Protocol: as §1, §2, §3, §4

## (-)-Syringaresinol-4-O-β-D-apiofuranosyl-(1→2)-β-D-glucopyranoside [SAG]
[1]
  IC50: 41 ± 6.5 µM
[2]
  IC50: 51.3 ± 3.1 µM
[3]
  IC50: 10.3 ± 0.49 µM
[4]
  IC50: 31.9 ± 2.8 µM
[5]; hNET D473N vs WT-hNET
  Change in SAG inhibition potency compared to WT: little change
  Decrease in SAG inhibition potency compared with WT: less than 3 folds
[5]; hNET D473N, intact HeLa cells, read-out: SAG IC50
  IC50: 42.7 ± 4.7 µM
[6]
  IC50: 12.5 ± 0.97 µM
[7]; hDAT S1 residue Val152 replaced
  Effect of mutation on SAG inhibition potency: little effect
[7]; hDAT V152F (S1), intact HeLa cells, read-out: SAG IC50
  IC50: 26.6 ± 2.8 µM
[8]
  IC50: 79.8 ± 3.3 µM
[9]; hDAT T566A vs WT-hDAT
  Increase in SAG IC50 compared with WT: less than 10 fold
[9]; hDAT T566A, intact HeLa cells, read-out: SAG IC50
  IC50: 136 ± 6 µM
[10]; hSERT Tyr95 to Phe (S1) vs WT-hSERT, APP+ transport
  Effect of mutation on SAG inhibition potency: little effect
[10]; hSERT Y95F (S1), 2 μM APP+ 5 min, intact HeLa cells, read-out: SAG IC50 for transport
  IC50: 4.45 ± 0.17 µM
[11]
  IC50: 324 ± 28 µM
[12]
  IC50: 48.3 ± 4.6 µM
[13]
  IC50: > 1000 µM
[14]
  IC50: 113 ± 5 µM
[15]
  IC50: 2.54 ± 0.13 µM
[16]; hDAT S1 residue Ser422 replaced
  Effect of mutation on SAG inhibition potency: little effect
[16]; hDAT S422T (S1), intact HeLa cells, read-out: SAG IC50
  IC50: 24.5 ± 1.4 µM
[17]; hDAT R544G vs WT-hDAT
  Increase in SAG IC50 compared with WT: less than 10 fold
[17]; hDAT R544G, intact HeLa cells, read-out: SAG IC50
  IC50: 150 ± 4 µM
[18]
  IC50: 126 ± 8.1 µM
[19]; hDAT F320A vs WT-hDAT
  Decrease in SAG IC50 compared with WT: ~50%
[19]; hDAT F320A, intact HeLa cells, read-out: SAG IC50
  IC50: 16.8 ± 0.7 µM
